# Tests used:
# histamine H1-receptor = conditions: more potent than Z-triprolidine; cited from earlier work
# [1] = after application of 5% lidocaine plaster to skin; cited from earlier work
# mu-opioid receptors = mu-opioid receptors (Homo sapiens, UniProt P35372); conditions: relative to morphine; cited from earlier work
# [2] = 100-400 mg/d; 8 patients with classic TN; cited from earlier work
# [3] = 10 patients with TN; cited from earlier work
# [4] = 23 patients, add-on therapy; cited from earlier work
# [5] = PHN; study in Japan; cited from earlier work
# [6] = Case report: patient with classic trigeminal neuralgia treated with trimeprazine; assay type: in vivo, human
# Source text: A middle-aged patient suffers from classic trigeminal neuralgia presenting with sharp, lancinating, severe pain in their left face precipitated by showering, eating, facial animation, touch of their facial skin and nose, and brushing their teeth. The episodes of pain are initiated by the stimuli above and immediately stop all other activity until they subside in several seconds. Their behavior is modified to avoid the stimuli above, even affecting how they speak and eats. […] Their daily activities are dominated by fear of inducing another attack. […] They had no remedy for these terrible pains before treatment with trimeprazine. The patient began treatment with trimeprazine 5 mg morning and evening. The second day of the course the intensity and frequency of the attacks were in decline. […] Since then, they have noted some discomfort in their face but not the sharp, almost unbearable pain of before. […] On most days they take no medication now. […] They note that this is a common side-effect for them to experience if a medication has any potential for causing drowsiness.
# [7] = Observed effect of trimeprazine on pain of post-herpetic neuralgia and trigeminal neuralgia; conditions: in vivo
# Source text: Post-herpetic pain involves the dorsal root ganglion (DRG), and trigeminal neuralgia involves the trigeminal ganglion (TG). Both the DRG and the TG are involved in the perception of itch and pain. Chronic neuropathic pain is a hypersensitivity state that results from peripheral and central sensitization. It is increasingly appreciated that chronic itch and chronic cough are also hypersensitivity syndromes.
# Chain of mu-opioid receptors (P35372 whole entry): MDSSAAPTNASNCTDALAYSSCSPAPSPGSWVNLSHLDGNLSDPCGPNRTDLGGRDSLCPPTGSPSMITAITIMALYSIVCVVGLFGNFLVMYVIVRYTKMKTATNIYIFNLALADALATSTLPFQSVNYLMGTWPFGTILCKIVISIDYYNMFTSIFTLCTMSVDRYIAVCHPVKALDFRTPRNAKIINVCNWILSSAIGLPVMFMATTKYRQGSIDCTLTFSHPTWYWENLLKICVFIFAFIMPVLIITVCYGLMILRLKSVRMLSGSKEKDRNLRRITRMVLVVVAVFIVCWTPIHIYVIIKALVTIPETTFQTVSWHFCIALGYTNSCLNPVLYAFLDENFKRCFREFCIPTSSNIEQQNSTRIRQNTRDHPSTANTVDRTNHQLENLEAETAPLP
smiles,measurement,setting,value
Cc1ccc(/C(=C\CN2CCCC2)c2ccccn2)cc1 [E-triprolidine],potency relative to Z-triprolidine,histamine H1-receptor,1000 fold
CCN(CC)CC(=O)Nc1c(C)cccc1C [Lidocaine],share of the drug that reaches the systemic circulation,[1],3%
CC[C@@H](c1cccc(O)c1)[C@@H](C)CN(C)C [Tapentadol],"potency in binding mu-opioid receptors, times less potent than morphine",mu-opioid receptors,18 times
CC1(C)O[C@@H]2[C@@H](CO[C@@]3(COS(N)(=O)=O)OC(C)(C)O[C@@H]23)O1 [Topiramate],patients in whom the drug was found effective,[2],75%
"CC[C@@H](C(N)=O)N1CCCC1=O [levetiracetam, Levetiracetam]",improvement,[3],50-90%
same,reduction in number of daily attacks,[4],62%
"CC(C)C[C@H](CN)CC(=O)O [pregabalin, Pregabalin]",analgesic property relative to gabapentin,[5],6 times
CC(CN(C)C)CN1c2ccccc2Sc2ccccc21 (stereo not drawn) [trimeprazine],side-effects,"[6]; 5 mg tablets, one patient",no side-effects other than drowsiness
same,pain,"[6]; after four days of medication, 5 mg morning and evening",all pain was gone
same,residual discomfort in face,"[6]; later use, ½ to 1 pill of 5 mg once or twice a day",successfully alleviated
same,intensity and frequency of the attacks,"[6]; second day of the course, 5 mg morning and evening, one patient",in decline
same,effect on pain of post-herpetic neuralgia and trigeminal neuralgia,[7],observed to treat the pain

# — patent US20250288591A1, “TRIMEPRAZINE FOR USE IN TREATING TRIGEMINAL NEURALGIA AND FOR REDUCING PAIN RELATED THERETO” (UNDAUNTED BIO, INC., priority 2022, published 2025)
